Test [1] concerns murine BM-DCs. Description: Cytokine and chemokine secretion by murine bone marrow-derived DCs (ELISA). The class given is cell-based, mouse. Details: key to TNFα / IL-18 / IL-8 / IL-10 / IL-2 / IL-1β / IL-5 / IL-6 / IL-12: + indicates increase; − indicates no change compared to medium. As to the method:
(§1) Bone marrow-derived DCs (BM-DC) were generated using modifications of the original method described by Inaba et al (42). In brief, bone marrow suspensions were incubated with red cell lysis buffer (PUREGENE™ RBC Lysis Solution, Gentra Systems, Minneapolis, Minn.) to remove red blood cells. After washing in media, lymphocytes and Ia-positive cells were killed with a cocktail of mAbs and rabbit complement for 60 min at 37° C. The mAbs were GK1.5 anti-CD4, TIB211 anti-CD8, TIB 120 anti-Ia, and TM 146 anti B220 (The Abs were kindly provided by Dr. Ralph Steinman). The cells were subsequently cultured in media containing 5% FCS and 10 ng/ml recombinant mouse GM-CSF (R&D Systems; Minneapolis, Minn.) for 7 days. For some experiments the cells were further purified at day 7 using CD11c^+-microbeads (Miltenyi Biotech., Auburn, Calif.) according to the manufacturer's instructions.
(§2) At day 7 of culture, immature DCs were either left untreated, or were stimulated with indicated doses of HMGB1-Bx, HMGB1 peptides, or LPS (E. coli serotype 026:B6, Sigma). In all experiments, DCs were analyzed 48 h after stimulation.
(§3) 48 h post activation, the production of cytokines and chemokines in cell culture supernatants was measured by ELISA (Pierce Boston Technology Center, SearchLight™ Proteome Arrays Multiplex Sample Testing Services, Woburn, Mass.).
For orientation: In an ELISA, binding on a coated surface is turned into a signal by an enzyme label.

Test [2] relates to human monocyte-derived DCs. Nature of the test: Cytokine and chemokine secretion by human immature monocyte-derived DCs (ELISA). The class given is cell-based. Details: key to TNFα / IL-18 / IL-8 / IL-10 / IL-6 / IL-12: + indicates increase; − indicates no change compared to medium. The following applies: for secretion of IL-6 / secretion of IL-8 / secretion of IL-12 (p70) / secretion of IL-18 / secretion of TNF-α: Example 2, peptides 200 μg/ml, HMGB1-Bx 50 μg/ml, polymyxin B, 48 h; for secretion of IL-6: FIG. 8A, 8B; for secretion of IL-8 / secretion of IL-12 (p70) / secretion of IL-18 / secretion of TNF-α: FIG. 8C; for IL-6 / IL-8 / IL-10 / IL-12 / IL-18 / TNFα: HUMAN DC, ELISA 48 h after exposure, compared to medium. Here is the method:
(§4) PBMCs were isolated from the blood of normal volunteers (Long Island Blood Services, Melville, N.Y.) over a Ficoll-Hypaque (Amersham Biosciences, Uppsala, Sweden) density gradient. CD14^+ monocytes were isolated from PBMCs by positive selection using anti-CD14 beads (Miltenyi Biotech., Auburn, Calif.) following the manufacturer's instructions. To generate DCs, CD14^+ cells were cultured in RPMI 1640 medium supplemented with 2 mM L-glutamine (GIBCO-BRL Life Technologies; Grand Island, N.Y.), 50 μM 2-mercaptoethanol (Sigma, St. Louis, Mo.), 10 mM HEPES (GIBCO-BRL), penicillin (100 U/ml)-streptomycin (100 μg/ml) (GIBCO-BRL), and 5% human AB serum (Gemini Bio-Products, Woodland, Calif.). Cultures were maintained for 7 days in 6-well trays (3×10^6 cells/well) supplemented with 1000 U GM-CSF per ml (Immunex, Seattle, Wash.) and 200 U IL-4 per ml (R&D Systems; Minneapolis, Minn.) at days 0, 2, 4 and 6.
(§5) At day 7 of culture, immature DCs were either left untreated (“immature”, IM), or were stimulated with indicated doses of (i) LPS (E. coli serotype 026:B6, Sigma), (ii) 500 ng/ml of trimeric CD40L (Alexis Biochemicals; San Diego, Calif.), (iii) a cocktail of cytokines (CyC) consisting of IL-6 at 1000 U/ml, TNFα at 10 ng/ml, IL-1β at 10 ng/ml (all from R&D Systems) and prostaglandin E2 (PGE-2) at 1 μg/ml (Sigma), or with (v) non-methylated CpG oligonucleotides (5′ […] 3′) at 30 μg/ml. The sequence of this oligonucleotide is known to induce DC maturation (4), except that it contains an unmodified phosphodiester backbone. In all experiments, DCs were analyzed 48 h after stimulation. All experiments using the rB box were performed in the presence of polymyxin B sufficient to neutralize greater than 10-fold more LPS than present in rB box preparations.
as §3
as §4, with “DCs, CD 14^+” for “DCs, CD14^+”
as §2

In a further test the test system is immature DCs. Description: Phenotypic maturation of human DCs (surface markers, FACS). The following applies: 48 h, rHMGB1 0.1-10.0 μg/ml. The format is cell-based. As to the method:
as §4, §5
1×10^4 DCs were reacted for at least 20 min at 4° C. in 100 μl of PBS/5% FCS/0.1% sodium azide (staining buffer) with phycoerythrin (PE)-conjugated IgG specific for CD206, CD54, HLA-DR (all from Beckton Dickinson Immunostaining Systems; San Jose. Calif.) and CD83 (Immunotech-Beckman-Coulter; Marseille, France) or fluorescein isothiocyanate (FITC)-conjugated IgG mAb specific for CD80, CD40 and CD58 (all from Beckton Dickinson Immunostaining Systems; San Jose. Calif.). Cells were then washed 4 times with staining buffer, fixed in 10% formaldehyde in PBS (pH 7.2-7.4) and examined by flow cytometry using a FACScan (BD). In all experiments, isotype controls were included using an appropriate PE- or FITC-conjugated irrelevant mAb of the same Ig class.

Another test concerns allogeneic T cells. Nature of the test: Mixed leukocyte reaction, stimulated murine BM-DCs with allogeneic T cells. The class given is cell-based, mouse. The following applies: BM-DCs from C57/BL6 mice; HMGB1-Bx 50 μg/ml, peptides 200 μg/ml, 48 h; 5-day co-culture. As to the method: T cells were isolated by negative selection using the mouse SpinSep antibody cocktail from StemCell Technologies (Vancouver, Calif.) according to the manufacturer's instructions. The cell purity of the isolated T cells was routinely ˜99% pure.
To assess levels of T cell activation and proliferation, cells were plated at 10^5 cells per well in a round-bottomed 96-well tray at DC:T cell ratios of 1:120 for 5 days in medium described above. The microcultures were pulsed with (^3H)-thymidine (1 μCi/well) for the final 8 h of culture. Cell cultures were harvested onto glass fiber filters with an automated multiple sample harvester and the amount of isotope incorporation was determined by liquid scintillation β-emission. Responses are reported as mean cpm of thymidine incorporation by triplicate cultures (+/−SEM).

Test [3] relates to murine BM-DCs. Description: Phenotypic maturation of murine BM-DCs (surface markers, FACS). The class given is cell-based, mouse. The following applies: CD11c+ gated BM-DCs, 48 h; HMGB1-Bx 50 μg/ml, peptides 200 μg/ml. Here is the method:
as §1, §2
1×10^4 DCs were reacted for at least 20 min at 4° C. in 100 μl of PBS/5% FCS/0.1% sodium azide (staining buffer) with fluorescein isothiocyanate (FITC)-conjugated IgG mAb specific for CD86, CD40 and MHC-II (eBioscience). Cells were then washed 4 times with staining buffer, fixed in 10% formaldehyde in PBS (pH 7.2-7.4) and examined by flow cytometry using a FACScan (BD). In all experiments, isotype controls were included using FITC-conjugated irrelevant mAb of the same Ig class.

The mark [4] stands for this setting: peptides 200 μg/ml, HMGB1-Bx 50 μg/ml, polymyxin B, 48 h.
Where [5] appears, read: Murine DC, ELISA 48 h after exposure, compared to medium.

Entries after “also recorded” stand apart in the source; their conditions may differ. No end group written: not given here. *: point of attachment. Biotin = O=C1N[C@H]2[C@H](CS[C@H]2CCCCC(=O)*)N1

In the case of CSEYRPKIKGEHPGLSIG [Hp-106 non-bio], the “secretion of IL-12 (p70)” value with murine BM-DCs [1] (setting [4]) is reported as “did not enhance IL-12 secretion”. In addition, the “secretion of IL-6” value in test [2] is “no activity”.
Turning to “recombinant HMGB1: Human recombinant HMGB1 expressed in Escherichia coli; full-length sequence SEQ ID NO:1”, the CD86 expression entry in the test with immature DCs is listed as “increases”. Also, in the test with immature DCs (rB box 100 μg/ml), the CD40 expression result is “increases”, the CD54 expression entry was “increases”, the CD83 expression entry is listed as “increases” and the “CD206 (macrophage mannose receptor) expression” value is given as “decrease”. The MHCII expression result in the test on immature DCs (rB box 100 μg/ml) is listed as “increases”.
“SERWKTMSAKEKGKFEDM (Biotin-SERWKTMSAKEKGKFEDM; listed as Homo sapiens) [Hp-46]”: in the test on allogeneic T cells, the “T cell stimulatory activity of exposed BM-DCs in mixed lymphocyte reaction” value was “did not show enhanced T cell stimulatory activity”.
On to “HPDASVNFSEFSKKCSER (Biotin-HPDASVNFSEFSKKCSER; listed as Homo sapiens) [Hp-31]”, for which, in the test with murine BM-DCs [1] (setting [5]), the IL-1β result is recorded as “+”, the IL-2 result is recorded as “+”, the IL-5 result was “+” and the IL-6 result is “−”. For the same substance, in the test on murine BM-DCs [1] (setting [5]), the IL-10 entry is listed as “−” and the IL-12 result is reported as “+”. Besides, in the test with murine BM-DCs [1] (peptides 200 μg/ml, 48 h), the “activation of murine BM-DCs” value is listed as “activated”. In addition, in the test with murine BM-DCs [1] (setting [4]), the “secretion of IL-1β” value is “enhanced the production”, the “secretion of IL-2” value is recorded as “enhanced the production”, the “secretion of IL-5” value is “enhanced the production” and the “secretion of IL-12 (p70)” value was “enhanced the production”. Also, the “secretion of IL-10” value with murine BM-DCs [1] (peptides 200 μg/ml, polymyxin B, 48 h) was “not”. Moreover, in test [2], the “secretion of IL-6” value is recorded as “induced secretion of IL-6”, the “secretion of IL-8” value is “not”, the “secretion of IL-12 (p70)” value was “increased secretion” and the “secretion of IL-18” value was “increased secretion”. In test [2], the “secretion of TNF-α” value is listed as “increased secretion”, the IL-6 result is reported as “+”, the IL-8 entry is listed as “−” and the IL-10 entry was “−”. In addition, in test [2], the IL-12 entry is listed as “+”, the IL-18 result was “+” and the TNFα entry is “+”.
Consider “DPNAPKRPPSAFFLFCSE (Biotin-DPNAPKRPPSAFFLFCSE; listed as Homo sapiens) [Hp-91]”, for which, in the test with murine BM-DCs [1] (setting [5]), the IL-1β result is reported as “+”, the IL-2 entry is reported as “+”, the IL-5 entry is “+” and the IL-6 result was “−”. Moreover, in the test with murine BM-DCs [1] (setting [5]), the IL-8 result is on record as “−”, the IL-10 entry is on record as “−”, the IL-12 result is given as “+” and the IL-18 result is “−”. Besides, the TNFα entry in the test with murine BM-DCs [1] (setting [5]) is “−”. Also, in the test on murine BM-DCs [1] (peptides 200 μg/ml, 48 h), the “activation of murine BM-DCs” value is listed as “activated”. Also, in the test with murine BM-DCs [1] (setting [4]), the “secretion of IL-1β” value is listed as “increased production”, the “secretion of IL-2” value is “increased production”, the “secretion of IL-5” value is given as “increased production” and the “secretion of IL-8” value is “not”. Moreover, in the test on murine BM-DCs [1] (setting [4]), the “secretion of TNF-α” value was “not”. Besides, in test [2], the “secretion of IL-6” value was “enhanced the IL-6 secretion; also recorded: induced IL-6 secretion”, the “secretion of IL-8” value is recorded as “not”, the “secretion of IL-12 (p70)” value was “increased secretion” and the “secretion of IL-18” value is given as “increased secretion”. Further, in test [2], the “secretion of TNF-α” value is “increased secretion”, the IL-6 entry is “+”, the IL-8 entry is on record as “−” and the IL-10 entry was “−”. In test [2], the IL-12 entry is “+”, the IL-18 entry is recorded as “+” and the TNFα result is recorded as “+”.
“SIGDVAKKLGEMWNNTAA (Biotin-SIGDVAKKLGEMWNNTAA; listed as Homo sapiens) [Hp-121, control peptide]”: the “T cell stimulatory activity of exposed BM-DCs in mixed lymphocyte reaction” value with allogeneic T cells is on record as “did not show enhanced T cell stimulatory activity”. In the test with murine BM-DCs [3], the CD40 expression result is “No altered expression”, the CD86 expression entry is recorded as “No altered expression” and the MHC-II expression result is on record as “No altered expression”.
